Patent US20240207277A1, “Methods For Treating Drug and Vaccine Induced Immune Thrombocytopenia by Administering Specific Compounds” (Principia Biopharma Inc., priority 2021, published 2024)
Several values for one entry are separate records, joined by “and”; a condition that tells them apart may be missing. Equal entries are not always repeated. Entries after “also recorded” stand apart in the source; their conditions may differ. Blank lines part the entries; values can stand above or below the molecule they belong to. Where a SMILES comes first, the peptide text is derived from it. Bridges are numbered along the chain shown (N, C = ends). [ ]: non-standard residue; d: D form. hArg = N=C(N)NCCCC[C@H](N)C(=O)O; Mpa = O=C(O)CCS

Columns and labels:
washed platelets [1] = assay: Light transmission aggregometry of washed platelets stimulated with serum from patients with VITT; format: cell-based, human
Experimental: Washed platelets were prepared from citrated whole blood as described in Nicolson et al., Low-dose BTK inhibitors selectively block platelet activation by CLEC-2, Haematologica 106(1):208-19 (2021). Briefly; citrated blood was taken from healthy, drug-free volunteers and mixed (1:10, v/v) with acid citrate dextrose and centrifuged (200×g, 20 minutes, RT) to produce platelet rich plasma. Platelet rich plasma was then centrifuged (1000×g, 10 minutes, RT) in the presence of 0.2 μg/mL prostacyclin. The platelet pellet was resuspended in modified-Tyrode's-HEPES buffer, prepared as described in Nicolson et al., acid citrate dextrose and 0.2 μg/mL prostacyclin and centrifuged (1000×g, 10 minutes, RT). Platelet pellet was resuspended in modified-Tyrode's-HEPES buffer to a concentration of 2×10^8/mL and allowed to rest for 30 minutes prior to use.
Aggregation was measured in washed platelets (2×10^8/mL) under stirring conditions (1200 rpm) at 37° C. using a light transmission aggregometer (Model 700, ChronoLog) for 20 minutes following stimulation with serum (1:15, v/v). Washed platelets were pre-incubated with IV.3 F(ab) for 5 minutes or with inhibitors for 10 minutes prior to stimulation with serum. Modified-Tyrode's-HEPES buffer or dimethyl sulfoxide (DMSO) was used as vehicle.

platelets via FcγRIIA = details: both low and high concentrations of heparin; cited from earlier work
platelets [2] = assay: Heparin Induced Platelet Activation (HIPA) assay (HITAlert kit); format: cell-based, human
Excerpt: See, e.g., Greinacher et al., Thrombotic thrombocytopenia after ChAdOx1 nCov-19 vaccination, N Engl J Med, doi:10.1056/NEJMoa2104840 (2021); Schlutz et al., Thrombosis and thrombocytopenia after ChAdox1 nCoV-19 vaccination, N Engl J Med, doi:10.1056/NEJMoa2104882 (2021). Cross-sectional brain imaging verified the presence of cerebral venous sinus thrombosis (CVST) and intracerebral haemorrhage in three patients, and ischemic stroke caused by internal carotid artery thrombus in one patient.

[3] = human, in vivo; cited from earlier work
BTK enzyme = BTK enzyme (Homo sapiens, UniProt Q06187); details: healthy volunteers; doses which provide 100% occupancy of the BTK enzyme; cited from earlier work
[4] = Phase 2 trial; cited from earlier work
[5] = Bleeding in thrombocytopenic patients; format: in vivo, human
251-kinase panel = 251-kinase panel selectivity; format: biochemical; details: 1 μM
platelets [6] = assay: Normal platelet function in vitro; format: cell-based
[7] = in comparison to first and second generation BTKi; cited from earlier work
[8] = Pharmacokinetics in humans after oral administration; format: in vivo, human
washed platelets [9] = assay: Light transmission aggregometry, aggregation to collagen; format: cell-based, human; details: 3 μg/mL collagen; results not shown
Experimental: […] Modified-Tyrode's-HEPES buffer or dimethyl sulfoxide (DMSO) was used as vehicle.
We tested if the Btk inhibitor rilzabrutinib (rilzabrutinib powder prepared in DMSO (final 0.02% DMSO) to achieve a concentration of 0.5 μM) could prevent platelet aggregation in patient sera.

[10] = HITAlert at presentation, serum of the individual VITT patient, normal range ≤ 8%

BTK enzyme, sequence (Q06187 whole entry): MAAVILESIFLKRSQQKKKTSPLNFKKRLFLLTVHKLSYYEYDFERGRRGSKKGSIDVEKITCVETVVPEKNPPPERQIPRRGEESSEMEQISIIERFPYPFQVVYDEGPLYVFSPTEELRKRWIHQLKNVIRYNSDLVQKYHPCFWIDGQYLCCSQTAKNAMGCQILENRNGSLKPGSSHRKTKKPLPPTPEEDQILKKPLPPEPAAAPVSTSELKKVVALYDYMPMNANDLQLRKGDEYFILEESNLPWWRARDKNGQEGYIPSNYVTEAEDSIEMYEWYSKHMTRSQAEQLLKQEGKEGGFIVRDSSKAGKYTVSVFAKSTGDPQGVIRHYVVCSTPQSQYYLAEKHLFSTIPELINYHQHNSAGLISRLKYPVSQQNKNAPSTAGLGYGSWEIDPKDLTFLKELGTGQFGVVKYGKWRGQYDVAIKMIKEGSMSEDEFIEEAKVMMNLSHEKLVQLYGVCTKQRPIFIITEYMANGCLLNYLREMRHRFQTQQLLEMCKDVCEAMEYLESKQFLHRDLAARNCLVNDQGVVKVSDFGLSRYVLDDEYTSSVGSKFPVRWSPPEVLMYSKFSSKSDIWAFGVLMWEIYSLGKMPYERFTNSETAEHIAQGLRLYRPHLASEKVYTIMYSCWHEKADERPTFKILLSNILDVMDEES

Molecule: heparin
aggregation to VITT patient sera, high heparin (washed platelets [1]; high heparin concentration (100 U/mL)): blocked aggregation | aggregation to VITT patient sera, low heparin (washed platelets [1]; low (0.2 U/mL) concentration of heparin, 7 patients): prevented (5 of 7 patients) or delayed (2 of 7 patients) | platelet activation by immune complexes (platelets via FcγRIIA): blocked | Platelet activation with serum and excess heparin (platelets [2]; [10]): 0.64% and 3.68% and 1.43% and 4.38% | Platelet activation with serum and heparin (platelets [2]; [10]): 18.53% and 18% and 36.5% and 22.63% | platelet activation by patient sera, high concentration of heparin (platelets [2]; sera of four patients tested): blocked | platelet activation by patient sera, low concentration of heparin (platelets [2]; sera of four patients tested): reduced | deleterious effect in 1 patient with VITT [3]: without deleterious effect

Molecule: C=CC(=O)Nc1cccc(Nc2nc(Nc3ccc(OCCOC)cc3)ncc2F)c1 [CC-292, spebrutinib]
tolerability (BTK enzyme): well tolerated

Molecule: C=CC(=O)N1CCC(CNc2ncnc(N)c2-c2ccc(Oc3ccccc3)cc2)CC1 [evobrutinib]
efficacy for multiple sclerosis [4]: demonstrated efficacy

Molecule: N=C(N)NCCCC[C@@H]1NC(=O)CCSSC[C@@H](C(N)=O)NC(=O)[C@@H]2CCCN2C(=O)[C@H](Cc2c[nH]c3ccccc23)NC(=O)[C@H](CC(=O)O)NC(=O)CNC1=O [eptifibatide] ([Mpa][hArg]GDWPC-NH2; disulfide 1-7)
response (aggregation) to patient sera (washed platelets [1]; eptifibatide 9 μM, data not shown): inhibited

Molecule: CC[C@H](C)[C@H](N)C(=O)N[C@H]1CSSC[C@@H](C(=O)N[C@H](C(N)=O)[C@@H](C)O)NC(=O)[C@H](CCCN=C(N)N)NC(=O)[C@H](Cc2cnc[nH]2)NC(=O)[C@H](Cc2cnc[nH]2)NC(=O)CNC(=O)[C@H](Cc2c[nH]c3ccccc23)NC(=O)[C@H](CC(=O)O)NC(=O)[C@H](CCC(N)=O)NC(=O)[C@H](C(C)C)NC(=O)[C@H](C(C)C)NC1=O [compstatin]
effect on aggregation to patient sera (complement inhibitors) (washed platelets [1]; data not shown): minor effects

association with bleeding [5]: has not been associated with bleeding | number of kinases with >90% inhibition (251-kinase panel): 6 kinases | impact on normal platelet function (platelets [6]): no impact | absorption [8]: rapidly absorbed | half-life ([8]; human, in vivo): 3 to 4 h
Molecule: CC(C)(C=C(C#N)C(=O)N1CCC[C@@H](n2nc(-c3ccc(Oc4ccccc4)cc3F)c3c(N)ncnc32)C1)N1CCN(C2COC2)CC1 [Compound (I), (R)-2-[3-[4-amino-3-(2-fluoro-4-phenoxy-phenyl)pyrazolo[3,4-d]pyrimidin-1-yl]piperidine-1-carbonyl]-4-methyl-4-[4-(oxetan-3-yl)piperazin-1-yl]pent-2-enenitrile]
platelet aggregation induced by serum from patients with VITT (washed platelets [1]; rilzabrutinib 0.5 μM, 10 minutes pre-incubation, washed platelets 2×10^8/mL, serum 1:15 v/v, n=7): prevented platelet aggregation; also recorded: blocks platelet aggregation | cross-reactivity with other molecules [7]: minimal cross-reactivity | aggregation to collagen (washed platelets [9]): fully inhibited

Molecule: N=C(N)c1ccc2cc(OC(=O)c3ccc(N=C(N)N)cc3)ccc2c1 [FUT-175]
effect on aggregation to patient sera (complement inhibitors) (washed platelets [1]; data not shown): minor effects

B1: PF4: platelet factor 4 (protein, UniProt P02776 32-101, looked up)
Platelet factor 4: EAEEDGDLQCLCVKTTSQVRPRHITSLEVIKAGPHCPTAQLIATLKNGRKICLDLQAPLYKKIIKKLLES
enhancement of partial aggregation to patient 2 serum (washed platelets [1]; 10 μg/mL PF4, data not shown): No enhancement
